One block for each molecule: values may come before it.
Assays:
[1] = molecular target: Tyrosine-protein kinase HCK (Homo sapiens) (UniProt P08631); experiment: Selectivity interaction (ActivX KiNativ screen (kinase selectivity in THP-1 cell lysates)) EUB0000639a HCK; assay type: subcellular; conditions: lysate, at 0.01 µM
[2] = molecular target: Mitogen-activated protein kinase kinase kinase kinase 5 (Homo sapiens) (UniProt Q9Y4K4); experiment: Selectivity interaction (ActivX KiNativ screen (kinase selectivity in THP-1 cell lysates)) EUB0000639a MAP4K5; assay type: subcellular; conditions: lysate
Chain of Mitogen-activated protein kinase kinase kinase kinase 5 (Homo sapiens) (Q9Y4K4 whole entry, looked up): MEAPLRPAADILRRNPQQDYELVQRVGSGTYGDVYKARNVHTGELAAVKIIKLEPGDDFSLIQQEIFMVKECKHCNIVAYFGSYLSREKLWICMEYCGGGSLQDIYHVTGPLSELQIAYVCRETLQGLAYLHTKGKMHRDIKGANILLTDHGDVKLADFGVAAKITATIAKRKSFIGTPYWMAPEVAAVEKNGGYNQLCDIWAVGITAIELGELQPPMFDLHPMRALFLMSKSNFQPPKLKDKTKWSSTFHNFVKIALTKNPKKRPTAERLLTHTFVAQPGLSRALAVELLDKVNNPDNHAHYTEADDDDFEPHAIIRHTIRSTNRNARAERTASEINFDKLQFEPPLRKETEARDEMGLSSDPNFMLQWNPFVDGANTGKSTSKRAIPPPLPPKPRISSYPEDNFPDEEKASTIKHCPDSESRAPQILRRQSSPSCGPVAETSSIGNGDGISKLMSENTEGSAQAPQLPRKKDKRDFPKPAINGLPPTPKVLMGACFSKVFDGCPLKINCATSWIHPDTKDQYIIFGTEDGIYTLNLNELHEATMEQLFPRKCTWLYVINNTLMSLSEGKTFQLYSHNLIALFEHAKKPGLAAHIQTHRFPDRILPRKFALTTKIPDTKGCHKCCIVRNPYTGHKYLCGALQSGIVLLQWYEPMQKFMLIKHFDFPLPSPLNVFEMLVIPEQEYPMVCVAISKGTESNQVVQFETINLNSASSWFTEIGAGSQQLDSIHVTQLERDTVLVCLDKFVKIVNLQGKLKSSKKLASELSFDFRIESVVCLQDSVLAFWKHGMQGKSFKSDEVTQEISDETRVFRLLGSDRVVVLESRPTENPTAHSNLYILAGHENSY

[3] = molecular target: Tyrosine-protein kinase HCK (Homo sapiens) (UniProt P08631); experiment: Selectivity interaction (Kinase panel (Invitrogen)) EUB0000639a HCK; conditions: at 200 nM
[4] = molecular target: Mitogen-activated protein kinase kinase kinase kinase 4 (Homo sapiens, UniProt O95819); experiment: Selectivity interaction (Enzymatic assay) EUB0001199aCl MAP4K4
[5] = molecular target: Phosphatidylinositol 4-phosphate 3-kinase C2 domain-containing subunit beta (Homo sapiens) (UniProt O00750); experiment: Selectivity interaction (Adapta Assay) EUB0001632a PIK3C2B; conditions: at 10 µM
Chain of Phosphatidylinositol 4-phosphate 3-kinase C2 domain-containing subunit beta (Homo sapiens) (O00750 whole entry, the tested form may be a part): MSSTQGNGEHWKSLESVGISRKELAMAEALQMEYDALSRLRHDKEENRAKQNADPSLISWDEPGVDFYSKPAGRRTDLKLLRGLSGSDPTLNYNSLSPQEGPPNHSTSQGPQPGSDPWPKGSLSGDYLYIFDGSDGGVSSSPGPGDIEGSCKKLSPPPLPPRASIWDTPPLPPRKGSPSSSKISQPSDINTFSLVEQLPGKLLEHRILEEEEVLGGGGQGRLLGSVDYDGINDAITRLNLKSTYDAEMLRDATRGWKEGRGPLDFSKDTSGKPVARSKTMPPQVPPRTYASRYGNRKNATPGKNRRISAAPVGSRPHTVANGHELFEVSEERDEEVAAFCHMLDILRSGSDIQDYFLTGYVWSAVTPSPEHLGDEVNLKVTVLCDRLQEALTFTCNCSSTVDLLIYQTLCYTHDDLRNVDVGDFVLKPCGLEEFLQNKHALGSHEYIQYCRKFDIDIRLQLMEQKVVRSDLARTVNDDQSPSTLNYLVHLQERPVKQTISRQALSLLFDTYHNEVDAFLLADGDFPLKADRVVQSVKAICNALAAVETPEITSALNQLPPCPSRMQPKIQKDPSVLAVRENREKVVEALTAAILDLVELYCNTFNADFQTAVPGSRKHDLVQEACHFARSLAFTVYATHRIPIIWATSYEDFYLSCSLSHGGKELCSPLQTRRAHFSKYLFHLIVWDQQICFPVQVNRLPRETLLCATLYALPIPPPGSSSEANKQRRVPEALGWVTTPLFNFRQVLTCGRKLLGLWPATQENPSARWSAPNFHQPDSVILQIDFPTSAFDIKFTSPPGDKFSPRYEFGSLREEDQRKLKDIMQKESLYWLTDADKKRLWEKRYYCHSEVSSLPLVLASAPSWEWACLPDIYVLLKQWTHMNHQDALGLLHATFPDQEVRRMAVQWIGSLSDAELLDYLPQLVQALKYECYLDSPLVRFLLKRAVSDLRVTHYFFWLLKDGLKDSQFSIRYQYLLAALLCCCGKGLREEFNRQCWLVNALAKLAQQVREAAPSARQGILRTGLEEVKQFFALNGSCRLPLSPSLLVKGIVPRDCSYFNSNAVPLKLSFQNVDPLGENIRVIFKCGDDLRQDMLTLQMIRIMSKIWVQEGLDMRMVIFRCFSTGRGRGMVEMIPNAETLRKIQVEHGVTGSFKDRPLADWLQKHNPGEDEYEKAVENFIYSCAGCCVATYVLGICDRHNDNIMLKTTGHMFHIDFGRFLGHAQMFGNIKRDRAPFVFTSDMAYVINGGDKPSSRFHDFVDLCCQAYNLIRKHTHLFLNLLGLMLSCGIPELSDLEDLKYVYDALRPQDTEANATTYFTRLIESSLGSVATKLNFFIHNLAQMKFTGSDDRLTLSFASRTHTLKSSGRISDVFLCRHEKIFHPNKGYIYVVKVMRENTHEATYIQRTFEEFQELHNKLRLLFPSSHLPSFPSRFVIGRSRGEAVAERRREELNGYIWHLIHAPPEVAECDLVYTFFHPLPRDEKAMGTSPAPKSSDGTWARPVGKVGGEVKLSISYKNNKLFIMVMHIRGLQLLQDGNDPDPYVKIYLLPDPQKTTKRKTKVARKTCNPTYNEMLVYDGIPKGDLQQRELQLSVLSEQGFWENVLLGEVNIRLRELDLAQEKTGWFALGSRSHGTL

[6] = molecular target: Fibroblast growth factor receptor 1 (Homo sapiens, UniProt P11362); experiment: Selectivity interaction (Kinase panel (Z-LYTE Assay)) EUB0001632a FGFR1; conditions: at 10 µM
[7] = molecular target: Cyclin-dependent kinase 5/CDK5 activator 1 (Homo sapiens) (UniProt Q00535+Q15078); experiment: Selectivity interaction (Kinase panel (Z-LYTE Assay)) EUB0001632a CDK5; assay type: protein-complex assay; conditions: at 10 µM
Chain of Cyclin-dependent kinase 5/CDK5 activator 1 (Homo sapiens) (Q00535 whole entry): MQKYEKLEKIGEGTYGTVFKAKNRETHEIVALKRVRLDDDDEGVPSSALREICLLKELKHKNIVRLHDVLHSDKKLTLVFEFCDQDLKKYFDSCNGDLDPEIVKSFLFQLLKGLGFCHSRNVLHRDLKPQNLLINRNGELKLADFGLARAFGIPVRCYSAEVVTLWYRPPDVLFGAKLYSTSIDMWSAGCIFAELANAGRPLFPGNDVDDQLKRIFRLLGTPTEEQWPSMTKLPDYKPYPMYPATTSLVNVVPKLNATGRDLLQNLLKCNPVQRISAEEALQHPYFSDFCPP
Chain of Cyclin-dependent kinase 5/CDK5 activator 1 (Homo sapiens) (Q15078 99-307 partner limits assumed): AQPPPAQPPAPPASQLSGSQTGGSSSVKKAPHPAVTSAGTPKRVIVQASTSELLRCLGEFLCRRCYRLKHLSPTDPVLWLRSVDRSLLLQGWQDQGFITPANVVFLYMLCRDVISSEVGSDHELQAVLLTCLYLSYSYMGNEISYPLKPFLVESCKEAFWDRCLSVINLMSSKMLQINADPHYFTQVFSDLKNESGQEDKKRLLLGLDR

[8] = molecular target: Ribosomal protein S6 kinase alpha-1 (Homo sapiens, UniProt Q15418); experiment: Selectivity interaction (KinomeScan (DiscoverX)) EUB0000595a RPS6KA1; conditions: at 10 µM
[9] = molecular target: Tyrosine-protein kinase Lyn (Homo sapiens, UniProt P07948); experiment: Selectivity interaction (KinomeScan (DiscoverX)) EUB0001079a LYN; conditions: at 1 µM
[10] = molecular target: T1, Beta-adrenergic receptor kinase 1 (Homo sapiens) (UniProt P25098); experiment: Selectivity interaction (KinomeScan (DiscoverX)) EUB0001079a ADRBK1; conditions: at 1 µM
T1 sequence (whole entry): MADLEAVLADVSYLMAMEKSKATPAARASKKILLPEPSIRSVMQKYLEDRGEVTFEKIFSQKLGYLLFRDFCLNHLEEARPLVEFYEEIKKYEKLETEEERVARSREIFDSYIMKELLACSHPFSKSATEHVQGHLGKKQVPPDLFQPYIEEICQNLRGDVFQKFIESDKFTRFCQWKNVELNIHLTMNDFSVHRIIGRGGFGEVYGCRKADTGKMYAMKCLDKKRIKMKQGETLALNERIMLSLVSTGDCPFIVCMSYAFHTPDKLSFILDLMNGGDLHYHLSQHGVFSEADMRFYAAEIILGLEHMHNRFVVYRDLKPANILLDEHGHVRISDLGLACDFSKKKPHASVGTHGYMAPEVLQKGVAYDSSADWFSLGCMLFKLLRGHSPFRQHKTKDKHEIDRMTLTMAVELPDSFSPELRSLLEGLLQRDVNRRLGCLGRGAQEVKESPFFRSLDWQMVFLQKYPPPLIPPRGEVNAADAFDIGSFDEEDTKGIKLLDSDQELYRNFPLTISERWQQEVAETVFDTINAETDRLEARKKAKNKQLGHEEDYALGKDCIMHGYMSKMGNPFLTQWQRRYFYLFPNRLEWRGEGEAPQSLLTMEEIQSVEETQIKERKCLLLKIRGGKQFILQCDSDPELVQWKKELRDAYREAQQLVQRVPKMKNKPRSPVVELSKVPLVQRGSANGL

D(3) dopamine receptor = D(3) dopamine receptor (Homo sapiens, UniProt P35462); experiment: Selectivity interaction (GPCR panel (PDSP screen)) EUB0001079a DRD3; conditions: at 10 µM
[11] = molecular target: Ribosomal protein S6 kinase beta-1 (Homo sapiens, UniProt P23443); experiment: Selectivity interaction (ProQinase) EUB0000171b RPS6KB1
Chain of Ribosomal protein S6 kinase beta-1 (P23443 whole entry, looked up): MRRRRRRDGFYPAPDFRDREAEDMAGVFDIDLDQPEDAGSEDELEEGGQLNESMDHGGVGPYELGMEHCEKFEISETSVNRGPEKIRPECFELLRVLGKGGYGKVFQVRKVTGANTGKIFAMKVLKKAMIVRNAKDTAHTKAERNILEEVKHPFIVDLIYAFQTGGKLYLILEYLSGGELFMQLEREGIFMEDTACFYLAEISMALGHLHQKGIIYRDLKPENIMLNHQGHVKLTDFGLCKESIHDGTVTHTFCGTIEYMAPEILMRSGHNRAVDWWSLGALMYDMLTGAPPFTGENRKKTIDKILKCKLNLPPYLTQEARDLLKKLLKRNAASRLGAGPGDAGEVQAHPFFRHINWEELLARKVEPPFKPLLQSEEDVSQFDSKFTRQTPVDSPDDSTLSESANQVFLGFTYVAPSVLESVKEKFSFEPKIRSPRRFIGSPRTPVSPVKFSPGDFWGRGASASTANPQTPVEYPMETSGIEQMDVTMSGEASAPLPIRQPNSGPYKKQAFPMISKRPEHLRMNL

[12] = molecular target: Dual specificity protein kinase CLK4 (Homo sapiens, UniProt Q9HAZ1); experiment: Selectivity interaction (ProQinase) EUB0000171b CLK4
Chain of Dual specificity protein kinase CLK4 (Q9HAZ1 whole entry, looked up, the tested form may be a part): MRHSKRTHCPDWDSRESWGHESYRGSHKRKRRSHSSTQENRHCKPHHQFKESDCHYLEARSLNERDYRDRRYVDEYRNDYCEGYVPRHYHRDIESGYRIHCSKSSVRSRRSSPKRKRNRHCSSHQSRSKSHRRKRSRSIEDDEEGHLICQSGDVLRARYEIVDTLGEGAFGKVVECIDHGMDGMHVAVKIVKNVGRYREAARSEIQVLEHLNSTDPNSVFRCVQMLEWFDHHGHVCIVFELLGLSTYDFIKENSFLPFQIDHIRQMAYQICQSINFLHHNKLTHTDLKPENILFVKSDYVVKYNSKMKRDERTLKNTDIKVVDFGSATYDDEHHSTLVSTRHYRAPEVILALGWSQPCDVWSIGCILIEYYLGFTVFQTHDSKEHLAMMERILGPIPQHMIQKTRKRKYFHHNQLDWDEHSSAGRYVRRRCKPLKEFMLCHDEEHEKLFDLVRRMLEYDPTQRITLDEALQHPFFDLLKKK

[13] = molecular target: ATPase family AAA domain-containing protein 2B (Homo sapiens) (UniProt Q9ULI0); experiment: Selectivity interaction (Human bromodomain panel (DSF assay)) EUB0000233b ATAD2B
[14] = molecular target: T2, Dual specificity mitogen-activated protein kinase kinase 4 (Homo sapiens) (UniProt P45985); experiment: Selectivity interaction (KinomeScan (DiscoverX)) EUB0000655a MAP2K4; conditions: at 10 µM
T2 sequence (whole entry): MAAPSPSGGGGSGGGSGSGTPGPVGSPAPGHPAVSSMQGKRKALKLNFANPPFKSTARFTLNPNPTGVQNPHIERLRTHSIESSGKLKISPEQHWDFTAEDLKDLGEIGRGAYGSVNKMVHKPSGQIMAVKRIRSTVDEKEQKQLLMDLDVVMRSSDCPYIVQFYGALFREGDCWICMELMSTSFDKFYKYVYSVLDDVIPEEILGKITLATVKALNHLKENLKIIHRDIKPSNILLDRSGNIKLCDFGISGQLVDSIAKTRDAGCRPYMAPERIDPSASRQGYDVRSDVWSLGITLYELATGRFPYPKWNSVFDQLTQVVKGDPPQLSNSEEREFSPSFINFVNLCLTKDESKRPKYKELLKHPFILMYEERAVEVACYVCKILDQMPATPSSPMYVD

[15] = system: Receptor-type tyrosine-protein kinase FLT3 (Homo sapiens), P36888 [UNDEFINED MUTATION]; experiment: Selectivity interaction (KinomeScan (DiscoverX)) EUB0000311b FLT3; conditions: at 1 µM
[16] = molecular target: Tyrosine-protein kinase CSK (Homo sapiens) (UniProt P41240); experiment: Selectivity interaction (Kinase panel (KiNativ target engagement assay in Jurkat cells)) EUB0001635a CSK; assay type: cell-based; conditions: at 1 µM
Chain of Tyrosine-protein kinase CSK (Homo sapiens) (P41240 2-450 limits assumed): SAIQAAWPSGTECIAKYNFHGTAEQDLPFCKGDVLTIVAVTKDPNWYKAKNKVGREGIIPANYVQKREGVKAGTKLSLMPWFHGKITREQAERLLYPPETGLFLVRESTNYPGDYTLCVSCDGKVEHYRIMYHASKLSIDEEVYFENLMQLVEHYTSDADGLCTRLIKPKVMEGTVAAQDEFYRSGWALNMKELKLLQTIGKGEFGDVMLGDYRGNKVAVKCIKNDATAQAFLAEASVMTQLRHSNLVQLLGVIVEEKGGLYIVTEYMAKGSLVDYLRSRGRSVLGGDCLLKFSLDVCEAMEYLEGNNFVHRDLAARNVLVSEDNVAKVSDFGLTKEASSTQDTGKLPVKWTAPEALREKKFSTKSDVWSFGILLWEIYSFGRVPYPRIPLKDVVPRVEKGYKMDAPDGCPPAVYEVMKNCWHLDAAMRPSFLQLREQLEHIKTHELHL

[17] = molecular target: DNA-dependent protein kinase catalytic subunit (Homo sapiens) (UniProt P78527); experiment: Selectivity interaction (Kinase panel (KiNativ target engagement assay in Jurkat cells)) EUB0001635a PRKDC; assay type: cell-based; conditions: Selectivity number of off-targets 0.0, Selectivity number of targets 233.0, Source Knowledge https://www.sciencedirect.com/science/article/pii/S2451945619300674?via%3Dihub, at 1 µM

Chain of Tyrosine-protein kinase HCK (Homo sapiens) (P08631 2-526 limits assumed): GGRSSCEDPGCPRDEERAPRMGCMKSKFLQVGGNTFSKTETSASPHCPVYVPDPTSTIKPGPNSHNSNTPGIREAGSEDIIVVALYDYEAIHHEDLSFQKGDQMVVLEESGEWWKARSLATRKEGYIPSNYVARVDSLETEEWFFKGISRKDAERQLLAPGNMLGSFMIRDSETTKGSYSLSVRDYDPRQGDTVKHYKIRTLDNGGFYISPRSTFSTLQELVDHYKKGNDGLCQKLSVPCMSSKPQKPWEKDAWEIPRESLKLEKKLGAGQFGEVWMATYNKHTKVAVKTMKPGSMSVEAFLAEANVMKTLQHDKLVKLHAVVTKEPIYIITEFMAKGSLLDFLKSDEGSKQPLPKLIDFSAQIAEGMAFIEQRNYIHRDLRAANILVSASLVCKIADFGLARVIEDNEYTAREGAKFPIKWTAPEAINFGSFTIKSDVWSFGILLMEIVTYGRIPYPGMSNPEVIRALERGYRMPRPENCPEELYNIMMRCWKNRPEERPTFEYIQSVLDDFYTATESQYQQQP

% of inhibition [1]: -14.7%
% of inhibition ([2]; at 0.01 µM): -0.9%
% of inhibition ([2]; at 0.04 µM): 0%
% of inhibition ([2]; at 0.2 µM): 3.2%
% of inhibition ([2]; at 1 µM): 9.9%
% of inhibition ([2]; at 5 µM): 11.8%
% of inhibition [3]: 4.23%
Compound: CC[C@@H]1[C@H](F)C(=O)N[C@@H]1COc1nccc2cc(C(N)=O)c(OC)cc12 [ZIMLOVISERTIB]

IC50 [4]: 873 nM
Compound: CN1Cc2nccc(-c3cn(C)nc3-c3ccc(F)cc3)c2C1=O

% of inhibition [5]: 64.1%
% of control [6]: 30.2%
% of control [7]: 5.78%
Compound: Cn1cc(-n2cnc3c(NCc4nc5cc(Cl)c(Cl)cc5[nH]4)nc(N4CCOCC4)nc32)cn1

Compound: COCC(=O)NC/C=C/c1ccc2ncnc(Nc3ccc(Oc4ccc(C)nc4)c(C)c3)c2c1 [CP-724714]
% of control [8]: 100%

Compound: Nc1cnc(N2CCc3cc(S(=O)(=O)Nc4c(F)cc(Cl)cc4F)cc(N4CCCC4=O)c32)nc1 [TP-020n]
% of control [9]: 88%
% of control [10]: 100%
% of inhibition (D(3) dopamine receptor): 7.41%

% of control ([11]; at 1 µM): 105%
% of control ([11]; at 5 µM): 87%
% of control ([12]; at 1 µM): 46%
% of control ([12]; at 5 µM): 20%
Compound: C=CC(=O)Nc1cccc(C(=O)Nc2ccc(Nc3cc(-c4[nH]c(SC)nc4C)ccn3)cc2)c1

dTM [13]: < 2 K
Compound: CN(C)CCCOc1ccc(-c2cc(NCCCn3cccn3)nc(S(C)(=O)=O)n2)cc1

Compound: CN(C)CCOc1ccc(-c2nc(-c3ccncc3)c(-c3ccc4c(c3)CC/C4=N\O)[nH]2)cc1
% of control [14]: 100%

% of control [15]: 12%
Compound: CCc1ccccc1C(=O)Nc1n[nH]c2c(C)c(F)c(C3C(C#N)=C(C)N(C)C(C)=C3C#N)cc12 [BAY-3827]

Compound: C=CC(=O)Nc1ccc(C(=O)Nc2[nH]nc3c2CN(C(=O)N[C@H](CN(C)C)c2ccccc2)C3(C)C)cc1
% of engagement ([16]; Selectivity number of off-targets 0.0, Selectivity number of targets 233.0, Source Knowledge https://www.sciencedirect.com/science/article/pii/S2451945619300674?via%3Dihub): -7.9%
% of engagement [16]: -8.1%
% of engagement [17]: -14%

Reference: ChEMBL document CHEMBL5465560, “Selectivity Literature for EUbOPEN Chemogenomic Library” (2024)
